Paper PMC6890495 (Chemical research in toxicology, 2019)

Tests used:
[1] = molecular target: T1, recombinant human ALKBH2 protein (Homo sapiens, UniProt Q6NS38); assay: Fe; assay type: biochemical; conditions: for change of repair efficiency with increasing Fe(II) ion: rhein 50 μM
T1 sequence (Q6NS38 1-261): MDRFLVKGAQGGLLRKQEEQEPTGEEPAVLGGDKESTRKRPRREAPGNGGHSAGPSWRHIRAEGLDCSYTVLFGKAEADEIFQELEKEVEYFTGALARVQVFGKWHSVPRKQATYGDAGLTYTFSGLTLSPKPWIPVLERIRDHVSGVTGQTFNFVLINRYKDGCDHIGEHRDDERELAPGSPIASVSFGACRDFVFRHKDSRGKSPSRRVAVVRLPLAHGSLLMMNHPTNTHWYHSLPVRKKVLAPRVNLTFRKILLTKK

[2] = molecular target: T1, recombinant human ALKBH2 protein; assay: α-ketoglutarate competitor test: ALKBH2 repair with varying αKG and fixed Fe; assay type: biochemical; conditions: for change of repair efficiency with increasing αKG: Fe(II) 10 μM, rhein 50 μM, compound 7 2 μM

reactivity (repair) ([1]; 5 μM Fe(II) ion, αKG kept at 93 μM) | repair efficiency ([1]; Fe(II) ion concentration increased up to 80 μM, αKG 93 μM, control ~95% repair) | repair efficiency ([2]; 2 μM compound, αKG 50 to 800 μM, Fe(II) kept at 10 μM) | Compound | change of repair efficiency with increasing Fe(II) ion ([1]; Fe(II) 5 to 80 μM, αKG 93 μM) | repair efficiency ([1]; 50 μM rhein, Fe(II) 5 to 80 μM, αKG fixed at 93 μM) | repair ratio ([2]; 50 μM rhein, 50 μM αKG, Fe(II) fixed at 10 μM) | change of repair efficiency with increasing αKG ([2]; αKG 50 to 800 μM)
 |  |  | O=C(O)c1cc(O)c(O)c(O)c1 [compound 2, gallic acid] | recovered in a concentration-dependent manner |  |  | 
 |  |  | O=C(O)c1cc(O)c2c(c1)C(=O)c1cccc(O)c1C2=O [rhein, Rhein, reference compound] | no significant change | around 36% | 30% | recovered in a concentration-dependent manner
5% | up to 60% | ~ 25% | tannic acid [compound 7] | restored in a concentration-dependent manner |  |  | did not vary significantly
 |  |  | O=C(OC[C@H]1O[C@@H](OC(=O)c2cc(O)c(O)c(O)c2)[C@H](OC(=O)c2cc(O)c(O)c(O)c2)[C@@H](OC(=O)c2cc(O)c(O)c(O)c2)[C@@H]1OC(=O)c1cc(O)c(O)c(O)c1)c1cc(O)c(O)c(O)c1 [compound 5, pentagalloyl glucose] | recovered in a concentration-dependent manner |  |  | 
